Experimental data published in patent publication US10729668B2, “Ketobutyrate compounds and compositions for treating age-related symptoms and diseases” (The Regents of the University of California, priority 2014, dated 2020).

What was measured:
C2C12 Cells = experiment: Cellular ROS measurement with H2DCF-DA; assay type: cell-based, mouse; conditions: 3 hours of drug treatment
Method: Measurement of ROS. C2C12 cells were seeded in 96-well plates at density of 250,000 cells/mL. Reactive oxygen species (ROS) levels were measured using 2′, 7′-dichlorodihydrofluorescein diacetate (H2DCF-DA) after 3 hours of drug treatment.

[1] = system: cardiomyocytes of neonatal rats; experiment: Catecholamine (ISO, PE) induced hypertrophy of cardiomyocytes; assay type: cell-based, rat; conditions: 1 mM
Text: In additional experiments, cardiomyocytes of neonatal rats were isolated by collagenase digestion and cultured overnight in DMEM containing 10% FCS, and then culture medium was changed to serum-free high glucose DMEM with supplement of ITS (insulin, transferrin, and sodiumselenite).
Catecholamine-induced cardiac hypertrophy.

Huh7.5 cells = experiment: MTT cytotoxicity assay; assay type: cell-based; conditions: 100 nM to 1 mM, up to 72 hours
Method: (§1) As subjects age, their susceptibility to infection increases. Therefore, to determine whether α-KB reduces ones susceptibility to age-related infection, Huh7.5 cells were infected with the Renilla reporter HCV for 5 hours and subsequently treated with 1 mM and 1 μM of α-KB. 72 hours post treatment, the cells were lysed and luciferase activity was measured. JG-98, which is a suppressor of viral assembly, was used as a positive control and water was used as a negative control. […] To ensure that the anti-viral activity of α-KB is not the result of cytotoxicity, Huh7.5 cells were treated with 1 mM, 100 μM, 10 μM, 1 μM, and 100 nM α-KB. MTT assays were performed every 24 hours up to 72 hours post treatment. Luteolin, an anti-cancer compound which is cytotoxic, was used as a positive control and water was used as a negative control.

NADH dehydrogenase = experiment: Electron flow assay, isolated liver mitochondria; assay type: biochemical, mouse
Method: Animal studies were performed under approved UCLA animal research protocols. Mitochondria from 3-month-old C57BL/6 mice were isolated. Briefly, livers were extracted, minced at 4° C. in MSHE+BSA (70 mM sucrose, 210 mM mannitol, 5 mM HEPES, 1 mM EGTA, and 0.5% fatty acid free BSA, pH 7.2), and rinsed several times to remove blood. All subsequent steps were performed on ice or at 4° C. The tissue was disrupted in 10 volumes of MSHE+BSA with a glass Dounce homogenizer (5-6 strokes) and the homogenate was centrifuged at 800×g for 10 minutes to remove tissue debris and nuclei. The supernatant was decanted through a cell strainer and centrifuged at 8,000×g for 10 minutes. […] Isolated mitochondrial respiration was measured by running coupling and electron flow assays as described. […] After basal readings, the sequential injections were as follows: 2 μM rotenone (Complex I inhibitor), 10 mM succinate (Complex II substrate), 4 μM antimycin A (Complex III inhibitor), and 10 mM/100 μM ascorbate/tetramethylphenylenediamine (Complex IV substrate). […]

[2] = system: Aged mice (22-23 month old C57BL/6J); experiment: Aged mice fed α-KB in drinking water for 7 months; assay type: in vivo
Method: Aged mice (22-23 month old C57BL/6J), including both males and females, were fed either water or α-KB (8 mM in drinking water or 90 mg/kg body weight) for 7 months. […] Mice were examined at least twice a week for signs of ill health, and severely sick or immobilized mice were subject to termination. The lifespan of α-KB treated male group was extended. All the males in untreated control group (5 of 5) died or were terminated due to severe illness before the completion of the 7 months test. Remarkably, most of the males in the α-KB treated group (4 of 5) lived healthily and were still in excellent health at the end of the 7 months study period.

HCV = experiment: Renilla reporter HCV infection of Huh7.5 cells, luciferase activity; assay type: cell-based; conditions: 1 mM and 1 μM, 72 hours post treatment
Method: as §1

[3] = system: nuo-6(qm200), daf-2(e1370), eat-2(ad1116) mutant C. elegans strains; experiment: Lifespan of long-lived mutant C. elegans strains; assay type: in vivo, Caenorhabditis elegans
Text: The nuo-6 gene encodes the C. elegans ortholog of the NDUFB4/B15 subunit of the mitochondrial electron transport chain complex I, also known as the NADH dehydrogenase complex.

[4] = system: ETC Complex I diaphorase (NADH: acceptor oxidoreductase); experiment: Complex I Enzyme Activity Microplate Assay (diaphorase); assay type: biochemical, bovine; conditions: 200 and 800 μM
Method: To assess if α-KB can affect the diaphorase (NADH: acceptor oxidoreductase) activity of Complex I, the Complex I Enzyme Activity Microplate Assay Kit (Abcam, ab109721) was used. The assay was performed according to the protocol provided. Bovine Heart Mitochondria lysate (Abcam, ab110338) was added with detergent, followed by incubation on ice for 30 minutes to release Complex I and then centrifuged at 12,000 g, 4° C. for 20 minutes. Supernatant was collected and diluted with the buffer provided and then added to a Complex I antibody-coated 96-well plate. After a 3 hour incubation followed by 2× wash with stabilizer buffer, the wells were added with 200 μL of reaction mix containing 50, 200, or 800 μM α-KB or vehicle control (distilled water). Each condition was performed in triplicates. Kinetic measurements of absorbance at 450 nm with 1 minute intervals were taken, and Complex I diaphorase activity was calculated from the slope of the absorbance to time. The readings were normalized to vehicle mean (as 100 percent).

Structure (SMILES): CCC(=O)C(=O)O [α-KB, α-ketobutyrate]
- cellular ROS (C2C12 Cells): increases the cellular ROS
- induced overexpression of ANF and BNP [1]: suppressed
- ISO- and PE-induced hypertrophy ([1]; 48 hours): completely abolished
- cytotoxicity (MTT) (Huh7.5 cells): not cytotoxic
- respiration in electron flow assay (NADH dehydrogenase): only NADH dehydrogenase related respiration is inhibited
- adverse effects ([2]; 8 mM in drinking water or 90 mg/kg body weight, 7 months): no adverse effects
- gray hair versus untreated group ([2]; aged female mice): reduced
- lifespan, females, treated versus untreated ([2]; aged female mice): indistinguishable
- hair density versus untreated control ([2]; aged female mice, 7 months): higher
- effect on gray hair and hair density ([2]; aged male mice): minimal
- lifespan, male group ([2]; aged male mice): extended
- males alive and healthy at end of the 7 months study period ([2]; aged male mice): 4 of 5
- cataracts ([2]; aged mice): no cataracts
- liver appearance ([2]; male and female aged mice): greatly improved liver appearance
- HCV infection (luciferase activity) (HCV): inhibits or reduces viral infection
- lifespan of daf-2(e1370) strain ([3]; daf-2(e1370)): does extend the lifespan
- lifespan of eat-2(ad1116) strain ([3]; eat-2(ad1116)): does extend the lifespan
- lifespan of nuo-6(qm200) strain ([3]; nuo-6(qm200)): inability of α-KB to extend the lifespan
- Complex I diaphorase activity [4]: directly inhibits
